These results are taken from patent publication EP0366451A2, “The use of oxidized polyamines, especially NN'-Bis-(3-propionaldehyde)-1-4-diaminobutane (sperminedialdehyde) as immunosuppressive agents” (ORTHO PHARMACEUTICAL CORPORATION, priority 1988, dated 1990).

“Also recorded” adds a separate entry of the source.

A word on the Km: it is the concentration of substrate that gives half-maximal velocity.

Data set [1] has as its system cytosolic ALDH. The data set can be described thus: NAD-linked cytosolic ALDH assay, L1210/CPA cells. The class given is biochemical, Murine. How it is done: (§1) Cultured murine leukemic cells and livers (excised from mice immediately after cervical dislocation) were homogenized in 3 volumes of ice-cold 1.15% KCl and 1 mM EDTA. The homogenate was centrifuged at 100,000 g for 45 min and the resulting supernatant was used to measure cytosolic ALDH activity. For particulate ALDH assay, the pellet (and homogenate for total ALDH) was resuspended in homogenizing buffer and treated with 0.25% Triton X-100 for 30 min at 4°C. The solubilized preparations were centrifuged at 48,000 g for 30 min and the supernatants were drawn off for ALDH determinations.
(§2) ALDH activity was measured by monitoring the reduction of NAD or NADp for 5-6 min at […] at 37°C in DU70 spectrophotometer (Beckman). The assay mixture contained 50 mM potassium phosphate buffer, pH 7.4, 2.0 mM NAD (or NADP) and 1.0 mM EDTA. The reaction was started by adding the substrate (SDA or other aldehyde) to the prewarmed (5 min at 37°C) assay mixture containing enzyme preparation. Pyrazole (0.1 mM) was added particularly for liver enzyme, to inhibit alcohol dehydrogenase. The apparent Km and maximum velocity (Vmax) values were calculated using a Lineweaver-Burk plot based on the estimation of the slope by regression analysis. Enzyme activity was expressed as mU (nmoles/min) per mg of protein. Protein contents were determined by the Bradford method, using bovine serum albumin as the standard.

A short description of data set [2]: Preliminary in vitro alkylation studies.
Data set [3] has as its target T1, S-Adenosylmethionine Decarboxylase (AdoMet DC) (Mus musculus, UniProt P0DMN7).
T1 construct: endogenous in cells; host or cells: murine leukemic L1210 cells (supernatant)
T1 sequence (P0DMN7 68-334 limits assumed): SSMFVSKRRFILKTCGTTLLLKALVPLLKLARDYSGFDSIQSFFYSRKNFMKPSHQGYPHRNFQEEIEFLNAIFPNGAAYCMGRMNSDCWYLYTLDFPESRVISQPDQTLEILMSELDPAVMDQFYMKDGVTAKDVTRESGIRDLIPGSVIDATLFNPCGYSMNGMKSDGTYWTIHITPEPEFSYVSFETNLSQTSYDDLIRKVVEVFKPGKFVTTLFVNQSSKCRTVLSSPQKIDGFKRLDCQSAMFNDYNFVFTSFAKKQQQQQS
T1 sequence (P0DMN7 1-67 limits assumed): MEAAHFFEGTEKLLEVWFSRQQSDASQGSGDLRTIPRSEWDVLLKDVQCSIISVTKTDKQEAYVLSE
The data set can be described thus: AdoMet DC inhibition in L1210 cell supernatants ([14C]CO2 release). The class given is biochemical, Murine. The note with it: for inhibition of AdoMet DC (in words): Fig. 9 and Figure 10. How it is done:
Murine leukemic L1210 cell supernatants were incubated with different concentrations of SDA or butyl dialdehyde, and AdoMet DC activity was estimated by monitoring the release of [¹⁴C] CO₂. Inhibition curves for both drugs were superimposable with IC₅₀ values of 0.12-0.13 x 10⁻³ M.

For data set [4], the target named is Ornithine decarboxylase (Mus musculus, UniProt P00860). The data set can be described thus: Ornithine decarboxylase inhibition. The class given is biochemical. The settings on record: Figure 10.
Description: The figure illustrates the comparative profile of the inhibition of key regulatory enzymes of polyamine synthesis by SDA, its analogue, butyl dialdehyde (BDA), difluoromethyl orinithine (DFMO) and methyl glyoxal bis (guanylhydrazone) (MGBG).
In data set [5] the test system is Cytosolic ALDH in mouse liver. The data set can be described thus: NAD-linked cytosolic ALDH assay, mouse liver. Type of data set: biochemical. The note with it: as substrate, mouse liver cytosol. As for the experimental part: as §1, §2
For data set [6], the system named is splenic T cell. The data set can be described thus: Concanavalin A-stimulated splenic T cell proliferation ([3H]-thymidine incorporation). The class given is cell-based, Mouse. As for the experimental part:
Splenic cells were treated with various concentrations of SDA or an analogue for 30 min. at 37°C. Cells were washed and cultured in the presence of Concanavalin A for 3 days. [³H] Thymidine 0.1µCi/well was added and cells were harvested after 18-24 hrs.
Mouse spleen cells were cultured for 3 days in flat bottom microtiter relates at 10⁵ cells per well in the presence of […] of Con A. 3H-thymidine (0.1 microcurie/well) was added for the last 4-6 hours of the culture period. Cells were harvested as described above.
For [³H]-thymidine incorporation, drug or vehicle treated bone marrow or spleen cells were plated in RPMI-1640, containing 10% fetal bovine serum, 10 µM β-mercaptoethanol, 25 mM HEPES and 2 mM glutamine. Con-A (4 µg/ml and […]) was used as mitogens for bone marrow and spleen cells. Three days later, [³H]-thymidine (0.2 µCi/well) was added and cells were harvested after 12-18 hrs. L1210/CPA and L1210/0 cells (0.1 - 1 x 10⁵ cells/well were plated in RPMI-1640 containing 10% horse serum. [³H]-thymidine was added after 24 hrs and cells were filtered on GF/B filter paper for scintillation counting.

For data set [7], the system named is tumor cells and hemopoietic progenitor cells. The data set can be described thus: Cytotoxicity of ALDH inhibitors ex vivo. The settings on record: at concentrations much lower than needed for complete inhibition of ALDH. Type of data set: cell-based. From the text: Both disulfiram and acrolein were very toxic to tumor cells and hemopoietic progenitor cells ex vivo at concentrations much lower than that needed for complete inhibition of ALDH. […] Therefore, in subsequent experiments, DEAB was chosen to study the survival of leukemic cells and myeloid progenitor cells after treatment with SDA.

In data set [8] the test system is NADP-linked cytosolic ALDH. The data set can be described thus: NADP-linked cytosolic ALDH assay, L1210/CPA cells. Type of data set: biochemical, Murine. The note with it: SDA as substrate; read-out: 50% inhibition at. How it is done:
as §1
as §2, with “standard. […]” for “standard.”

Ornithine decarboxylase, sequence (P00860 whole entry): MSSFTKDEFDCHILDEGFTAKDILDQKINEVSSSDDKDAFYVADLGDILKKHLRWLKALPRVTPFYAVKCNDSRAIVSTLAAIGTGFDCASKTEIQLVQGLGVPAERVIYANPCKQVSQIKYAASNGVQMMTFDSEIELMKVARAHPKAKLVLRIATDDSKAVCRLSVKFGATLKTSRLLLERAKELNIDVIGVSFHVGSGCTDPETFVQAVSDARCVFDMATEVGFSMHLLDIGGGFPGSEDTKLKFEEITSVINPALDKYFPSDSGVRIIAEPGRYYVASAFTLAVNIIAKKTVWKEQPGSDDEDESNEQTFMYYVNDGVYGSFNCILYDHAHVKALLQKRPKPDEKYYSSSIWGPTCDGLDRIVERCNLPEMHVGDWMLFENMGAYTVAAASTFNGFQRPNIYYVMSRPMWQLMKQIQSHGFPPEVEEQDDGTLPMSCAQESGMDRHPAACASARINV

Regarding `c1cn[nH]c1` [Pyrazole], the “effect on L1210/CPA cytosolic enzyme” value in data set [1] (SDA as the substrate, data not shown) is on record as “had no effect”.

Turning to `CC(=O)CCNCCCCNCCC(C)=O` [ANALOGUE # 3], the alkylation entry in data set [2] is reported as “nonspecific alkylating agents”.

Regarding `CC(C=NNC(=N)N)=NNC(=N)N` [MGBG, methyl glyoxal bis (guanylhydrazone), reference compound], the “inhibition of AdoMet DC (in words)” value in data set [3] is given as “inhibited AdoMetDC; also recorded: selectively reduced AdoMet IC activity”.

Take `NCCCC(N)(C(=O)O)C(F)F` (stereo not drawn) [DFMO, difluoromethyl orinithine, reference compound]: in data set [4], the “inhibition of ODC (in words)” value is “inhibited ODC with high potency”. For the same compound, in data set [3], the “inhibition of AdoMet DC (in words)” value was “compensatory increase in AdoMetDC”.

`CCC=O` [Propionaldehyde]: the Km in data set [1] (as substrate, L1210/CPA cytosol, NAD, ± SEM, 3-4 experiments) is 26.5 ± 4.9 µM; in data set [5] (NAD, ± SEM, 3-4 experiments), 14 ± 2.8 µM. Besides, the “Specific (activity of ALDH)” value came to 10.5 ± 3.2 mU/mg Protein in data set [1] (as substrate, L1210/CPA cytosol, propionaldehyde 1.0 mM) and 22.5 ± 3.9 mU/mg Protein in data set [5] (propionaldehyde 1.0 mM).

`Nc1ncnc2c1nc(Sc1cc3c(cc1Br)OCO3)n2CCc1ccccc1Cl` [ANALOGUE # 4]: the alkylation result in data set [2] was “nonspecific alkylating agents”.

Consider `O=CCCCNCCCCNCCCC=O` [ANALOGUE # 7, butyl dialdehyde], for which the “inhibition of AdoMet DC (in words)” value in data set [3] is given as “selectively inhibited adenosylmethionine decarboxylase”. Further, the IC50 in data set [3] (Figure 9, inhibition curves superimposable, read-out: IC₅₀ values) was in the range of 120 to 130 µM. The “potency in proliferation assays compared with SDA” value in data set [6] (Fig. 8) was “less potent than SDA”. Also, in data set [6] (Figure 8), the “fold less potent than SDA” value was 30 fold.

As to `CCN(CC)C(=S)SSC(=S)N(CC)CC` [Disulfiram], the “toxicity to tumor cells and hemopoietic progenitor cells ex vivo” value in data set [7] is “very toxic”.

In the case of `C=CC=O` [Acrolein], the IC50 in data set [1] (SDA (1.0 mM) as substrate, pretreated with inhibitor 5 min at 37°C, read-out: Inhibition (IC₅₀)) was 2.5 ± 0.63 µM; in data set [8], 50 to 100 µM. Besides, the “toxicity to tumor cells and hemopoietic progenitor cells ex vivo” value in data set [7] was “very toxic”.
